From paper PMC10518255, “A first-in-class pan-lysyl oxidase inhibitor impairs stromal remodeling and enhances gemcitabine response and survival in pancreatic cancer” (Nature Cancer, 2023)
Values joined by “and” are separate entries in the source; they are usually repeats but may differ in a detail not shown here. Identical values can stand only once.

Test system: KPC CCs liver colonization
Assay: Intrasplenic model of liver colonization, late administration of treatment (established metastases)
Type: in vivo, mouse
Details: for Quantification of metastases/mm2 (late administration): Figure 5F, intrasplenic liver colonization, individual animals; for metastatic burden in liver: treatment from day 4, established metastases
Protocol: Fig. 5 PXS-5505 administered in intrasplenic models of liver colonization. a, Schematic of the intrasplenic model of liver colonization with early administration of treatment. CCs were implanted into the spleen of BALB/c-Fox1nuAusb mice under anesthesia on day 0. Treatment with 0.9% saline (vehicle); twice-weekly Gem (100 mg kg^−1 i.p.) (Gem); daily PXS-5505 at 20 mg kg^−1 i.p. (PXS-5505) or daily PXS-5505 at 20 mg kg^−1 i.p. + twice-weekly Gem at 100 mg kg^−1 i.p. (PXS-5505 + Gem) was administered from day 1. At the end point (day 10) livers were collected and H&E-stained for scoring. Representative images of H&E-stained liver (taken from one biologically independent animal). Scale bar, 100 μm. b, Representative images of H&E-stained livers from each treatment group (n = 1 FOV taken from one biologically independent animal per group). Scale bars, 100 μm. c, Quantification of metastases per mm^2 (n = 9 biologically independent animals per group). Data are mean ± s.d. […] Data are mean ± s.d. Two-tailed P values were determined by an unpaired, nonparametric t-test with a Mann–Whitney U-test correction (comparison between two groups). e, Schematic of intrasplenic model of liver colonization with late administration of treatment. CCs were implanted into the spleen of BALB/c-Fox1nuAusb mice under anesthesia on day 0. Treatment with 0.9% saline (vehicle); twice-weekly Gem (100 mg kg^−1 i.p.) (Gem); daily PXS-5505 at 20 mg kg^−1 i.p. (PXS-5505); or daily PXS-5505 at 20 mg kg^−1 i.p. + three doses of Gem (100 mg kg^−1 i.p. (PXS-5505 + Gem) was administered from day 4. Representative images of H&E-stained liver (taken from one biologically independent animal). Scale bar, 100 μm. f, Quantification of metastases at endpoint (n = 10 biologically independent animals per treatment group, n = 5 biologically independent animals at day 4 for confirmation of overt metastases). Data are mean ± s.d. P values were determined by an unpaired, nonparametric t-test with a Mann–Whitney U-test correction (comparison between two groups). g, Representative images of H&E-stained livers from each treatment group. Scale bars, 100 μm. Source data
For the intrasplenic models, animals were randomized before receiving treatment. GLP-grade PXS-5505 (20 mg kg^−1) was administered daily i.p. (starting day 0 for the early stage and day 4 for the late stage) until the end point and gemcitabine (100 mg kg^−1) was administered on days 3, 6 and 9 for the early stage and days 5, 7 and 10 for the late stage. […]
The 4-µm formalin-fixed paraffin-embedded (FFPE) sections were cut and stained for H&E following standard histopathology methodologies or stained for CK19 using the Bond RX H2(30) protocol detailed above. […] The total number of liver metastases were quantified and determined using QuPath[57].

SMILES	Quantification of metastases/mm2 (late administration)	metastatic burden in liver
Nc1ccn([C@@H]2O[C@H](CO)[C@@H](O)C2(F)F)c(=O)n1 [Gem, gemcitabine]	0.001632 metastases/mm2 and 0.001329 metastases/mm2 and 0.001736 metastases/mm2 and 0.001305 metastases/mm2 and 0.001793 metastases/mm2 and 0.001126 metastases/mm2 and 0.001529 metastases/mm2 and 0.001107 metastases/mm2 and 0.001352 metastases/mm2 and 0.001209 metastases/mm2	did not significantly alter metastatic burden
Cl.Cl.NC/C=C(\F)CS(=O)(=O)c1cccc2cccnc12.O [PXS-5505, (Z)-3-fluoro-4-(quinolin-8-ylsulfonyl)but-2-en-1-amine dihydrochloride monohydrate]	0.001672 metastases/mm2 and 0.001212 metastases/mm2 and 0.001664 metastases/mm2 and 0.001776 metastases/mm2 and 0.002261 metastases/mm2 and 0.001845 metastases/mm2 and 0.0007878 metastases/mm2 and 0.001204 metastases/mm2 and 0.001477 metastases/mm2 and 0.001663 metastases/mm2	did not significantly alter metastatic burden
